# Measurements as given in PubChem BioAssay (NCI).
#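 Compound exposure: 48 hours, 5 concentrations, 96-well plates. TGI: total growth inhibition.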
# How the values were obtained:
# Assay in all cases: inhibition of tumour cell growth, NCI panel, 48 h
# MOLT-4 leukemia = system: MOLT-4 leukemia
# SW-620 colon = system: SW-620 colon
# NCI-H23 lung = system: NCI-H23 lung
# OVCAR-5 ovarian = system: OVCAR-5 ovarian
# NCI/ADR-RES ovarian = system: NCI/ADR-RES ovarian
# COLO 205 colon = system: COLO 205 colon
# RPMI-8226 leukemia = system: RPMI-8226 leukemia
# HT29 colon = system: HT29 colon
# A498 renal = system: A498 renal
# SK-OV-3 ovarian = system: SK-OV-3 ovarian
Compound,TGI (MOLT-4 leukemia),TGI (SW-620 colon),TGI (NCI-H23 lung),TGI (OVCAR-5 ovarian),TGI (NCI/ADR-RES ovarian),TGI (COLO 205 colon),TGI (RPMI-8226 leukemia),TGI (HT29 colon),TGI (A498 renal),TGI (SK-OV-3 ovarian)
CN(C)c1ccc(S(=O)Nc2ccccc2)cc1 (stereo not given),> 100 µM,> 100 µM,> 100 µM,> 100 µM,> 100 µM,63.1 µM,> 100 µM,> 100 µM,–,–
COc1cc(NS(C)(=O)=O)ccc1Nc1cc(C)[nH]c2ccc3nccc3c12,–,> 100 µM,> 100 µM,> 100 µM,> 100 µM,> 100 µM,> 100 µM,> 100 µM,> 100 µM,–
COc1ccc(C2=N/C(=C\c3ccccc3)C(=O)O2)cc1,52.6 µM,> 100 µM,–,> 100 µM,43.4 µM,–,> 100 µM,> 100 µM,–,> 100 µM
CCN(CCCN(CC)C(=O)Nc1c(C)cccc1C)C(=O)Nc1c(C)cccc1C,> 100 µM,> 100 µM,> 100 µM,> 100 µM,> 100 µM,> 100 µM,> 100 µM,> 100 µM,> 100 µM,> 100 µM
COc1ccc(NC(=O)CC(=O)N2N=C(N3c4ccccc4Sc4ccccc43)CC2c2ccccc2)cc1 (stereo not given),> 100 µM,> 100 µM,> 100 µM,> 100 µM,> 100 µM,> 100 µM,> 100 µM,> 100 µM,–,> 100 µM
O=C(Nc1nccs1)c1c(O)nc2sccn2c1=O,> 10 µM,> 10 µM,> 10 µM,> 10 µM,> 10 µM,> 10 µM,> 10 µM,> 10 µM,> 10 µM,> 10 µM
COc1cccc(CCCNC(=O)Cc2cc(OC)c(OC)cc2CO)c1,> 100 µM,> 100 µM,> 100 µM,> 100 µM,> 100 µM,> 100 µM,–,> 100 µM,> 100 µM,–
CN(C)C1(N(C)C)Oc2c(c(=O)n(C)c(=O)n2C)C(c2ccc(Br)cc2)C1(F)F (stereo not given),> 100 µM,> 100 µM,> 100 µM,> 100 µM,> 100 µM,> 100 µM,> 100 µM,–,> 100 µM,> 100 µM
O=[N+]([O-])c1ccc(Oc2c(Cl)cc(S(=O)(=O)/N=C(\NO)Nc3ccc(Cl)cc3)cc2Cl)cc1,21.7 µM,28.6 µM,23.6 µM,25.8 µM,32.2 µM,29.9 µM,22.8 µM,27.9 µM,23.3 µM,31.2 µM
CCOC(=O)Cn1c(=O)c2nc(SC)sc2n(-c2ccccc2)c1=O,> 100 µM,> 100 µM,> 100 µM,> 100 µM,–,> 100 µM,> 100 µM,> 100 µM,> 100 µM,–
O=C(CC(C(=O)c1ccsc1)c1ccc2c(c1)OCO2)c1ccccc1 (stereo not given),> 100 µM,> 100 µM,63.1 µM,> 100 µM,> 100 µM,> 100 µM,> 100 µM,> 100 µM,> 100 µM,> 100 µM
CC1(C)C2CCC1(C)[C@H](n1c(=O)n([C@@H]3CC4CCC3(C)C4(C)C)c(=O)n([C@@H]3CC4CCC3(C)C4(C)C)c1=O)C2,> 100 µM,> 100 µM,> 100 µM,> 100 µM,> 100 µM,–,> 100 µM,> 100 µM,> 100 µM,–
CCOC(=O)c1c(C)nc2c3ccccc3c(C#N)c(C)n12,> 100 µM,> 100 µM,–,> 100 µM,> 100 µM,–,> 100 µM,–,> 100 µM,51.3 µM
Cc1ccc(C(=C2Sc3ccccc3S2)C(=C2Sc3ccccc3S2)c2ccc(C)s2)s1,> 100 µM,> 100 µM,> 100 µM,> 100 µM,> 100 µM,> 100 µM,> 100 µM,> 100 µM,> 100 µM,> 100 µM
c1c[nH]c(-c2ccc(-c3ccc[nH]3)c3nsnc23)c1,> 45.8 µM,> 100 µM,79.6 µM,> 96.1 µM,> 93.2 µM,> 65.9 µM,> 52.6 µM,> 37.8 µM,> 100 µM,> 100 µM
O=c1[nH]c(=O)n(C2OC(CO)C(O)C2O)c2nc(-c3ccc(-c4ccccc4)cc3)cnc12 (stereo not given),> 100 µM,> 100 µM,> 100 µM,> 100 µM,> 100 µM,> 100 µM,> 100 µM,> 100 µM,> 100 µM,> 100 µM
N#CC12C(=O)N=C(N)C1(C#N)C(c1ccco1)NC1=C2CCCC1 (stereo not given),> 100 µM,> 100 µM,> 100 µM,> 100 µM,> 100 µM,> 100 µM,> 100 µM,> 100 µM,> 100 µM,> 100 µM
CSC(=S)N/N=C(\C)c1ccc(S(=O)(=O)N(C)c2ccccc2)cc1,> 100 µM,> 100 µM,> 100 µM,> 100 µM,> 100 µM,> 100 µM,> 100 µM,> 100 µM,> 100 µM,> 100 µM
Cc1cc2c3c(nc4ccccc42)C(=O)c2ccccc2-c3n1,24.1 µM,35.9 µM,15.9 µM,> 100 µM,38.5 µM,> 100 µM,> 100 µM,60.2 µM,42.3 µM,84 µM
COC(=O)C1CCC(=O)N1C(c1ccc(OC)cc1)c1ccc2c(c1)OCO2 (stereo not given),> 100 µM,> 100 µM,> 100 µM,> 100 µM,> 100 µM,> 100 µM,> 100 µM,> 100 µM,> 100 µM,> 100 µM
CC1=NS(=O)(=O)c2ccccc2N1,> 100 µM,> 100 µM,> 100 µM,> 100 µM,–,> 100 µM,–,> 100 µM,> 100 µM,> 100 µM
Cc1cn(C2CC(O)C(CO)O2)c(=O)[nH]c1=O (stereo not given),4090 µM,> 5000 µM,> 4530 µM,> 5000 µM,> 5000 µM,> 5000 µM,> 5000 µM,> 5000 µM,> 5000 µM,> 4890 µM
